{
  "source": "patent US20180369244A1",
  "about": "“BTK Inhibitors to Treat Solid Tumors Through Modulation of the Tumor Microenvironment” (Acerta Pharma B.V., priority 2014, published 2018)",
  "key": {"[1]": {"tested_on": "NK cells", "experiment": "Whole blood NK cell degranulation/ADCC assay, MEC-1 cells opsonised with obinutuzumab", "type": "cell-based, human", "conditions": "1 h pretreatment, obinutuzumab 1 μg/mL, 4 h", "protocol": "Degranulation in whole blood was performed as follows. […] Exponentially growing cells were used. […] A white blood cell (WBC) count of whole blood was performed. […] 170 μL aliquots of unmanipulated whole blood were incubated with 10 μL BTK inhibitors or X-VIVO 15 medium for one hour into a plate. […] The samples were placed in a 5% CO2 incubator for 4 hours at 37° C.\nAfter 4 hours, the samples were mixed gently and 50 μL aliquots were removed from each well and placed in fluorescence-activated cell sorting (FACS) test tubes. A 20 μL aliquot of anti-CD56-APC antibody and anti-CD107a-PE antibody was added. The samples were incubated for 20 minutes at room temperature in the dark. An aliquot of 2 mL of FACS lysing solution (BD Biosceinces) was added. The samples were again incubated for 5 minutes, and then centrifuged at 2000 rpm for 5 minutes. Supernatant was discarded and the cell pellet was resuspended in 500 μL of PBS. The samples were analyzed on the flow cytometer for CD107a^+ NK cells (CD56+)."}, "[2]": {"target": "T1, BTK (Mus musculus, UniProt P35991)", "T1 construct": "endogenous in cells; host or cells: granulocytic and monocytic MDSCs from tumor-bearing PDA mice", "experiment": "Molecular probe assay, BTK occupancy in MDSCs of tumor bearing PDA mice", "type": "in vivo", "conditions": "15 mg/kg BID, Day 8, 4 hours post dose", "excerpt": "A molecular probe assay was used to calculate the percent irreversible occupancy of total BTK."}, "[3]": {"tested_on": "EGFR", "experiment": "EGF-induced EGFR phosphorylation in A431 cells (phosphoflow)", "type": "cell-based, human", "procedure": "Phosphoflow cytometry was performed with p-EGFR (Y1069). MFI values were normalized so that 100% represents the p-EGFR level in stimulated cells without inhibitor, while 0% represents the unstimulated/no drug condition."}, "[4]": {"tested_on": "NSCLC (KrasLA2)", "experiment": "KrasLA2 genetic NSCLC model", "type": "in vivo, mice", "excerpt": "The model is designed to have sporadic expression in single cells of G12D mutant Kras off its own promoter triggered by spontaneous intrachromosomal recombination. Johnson, et al. Nature 2001, 410, 1111-16. While the mutant Kras protein is expressed in a few cells in all tissues, tumor development is seen only in the lung at high penetrance."}, "[5]": {"tested_on": "Raji cells", "experiment": "Rituximab ADCC chromium release assay", "type": "cell-based, human", "conditions": "1 μM", "excerpt": "Cell culture conditions were as follows. […] The HER18 cells were maintained in DEM supplemented with fetal bovine serum, penicillin-streptomycin and. Prior to assay, HER18 cells were harvested using trypsin-EDTA, washed with phosphate-buffered saline (PBS) containing 5% serum and viable cells were counted. For culture of primary target cells, peripheral blood from CLL patients was subject to density centrifugation to obtain peripheral blood mononuclear cells (PBMC). Cell preparations were washed and then subject to positive selection of CD5+CD19^+ CLL cells using magnetic beads (MACS, Miltenyi Biotech). Cell preparations were used fresh after selection. NK cells from CLL patients and healthy volunteers were enriched from peripheral blood collected in sodium citrate anti-coagulant tubes and then subject to density centrifugation. Removal of non NK cells was performed using negative selection by MACS separation. Freshly isolated NK cells were washed three times, enumerated, and then used immediately for ADCC assays.\nADCC assays were performed as follows. Briefly, target cells (Raji or primary CLL) were labeled by incubation at 37° C. with 100 μCi ^51Cr for 4 hours prior to co-culture with NK cells. Cells were washed, enumerated, and then added in triplicate to prepared 96-well plates containing treated NK cells at an effector:target (E:T) ratio of 25:1. […] The effect of NK cell natural cytotoxicity was assessed in wells containing no rituximab. Cultures were incubated at 37° C. for 4 hours, and then centrifuged. Supernatants were harvested and ^51Cr release was measured by liquid scintillation counting. All experiments were performed in triplicate."}, "[6]": {"tested_on": "orthotopic pancreatic cancer (KPC cell line)", "experiment": "Orthotopic pancreatic cancer model", "type": "in vivo, C57BL/6 mice", "conditions": "15 mg/kg oral", "procedure": "Cell line derived from KrasGl2D;Trp53R172H;Pdx1-Cre (KPC) mice were orthotopically implanted into the head of the pancreas after 35 passages. Based on the mice background from where the cell lines were generated, 1×10^6 cells were injected in C57BL/6 mice. Throughout the experiment, animals were provided with food and water ad libitum and subjected to a 12-h dark/light cycle. Animal studies were performed in accordance with the U.S. Public Health Service “Guidelines for the Care and Use of Laboratory Animals” (IACUC). After euthanization, pancreatic tumors were dissected out, weighed and single cell suspensions were prepared for flow cytometry analysis."}, "[7]": {"experiment": "Glutathione binding and depletion in vitro", "type": "in vitro ADME", "excerpt": "(§1) No unique human metabolite was identified. Preliminary evaluations of metabolism in the plasma, bile, and urine of rats, dogs, and monkeys indicated metabolic processes of oxidation, glutathione binding, and hydrolysis."}, "[8]": {"tested_on": "GPVI platelet aggregation", "experiment": "GPVI platelet aggregation (convulxin-induced)", "type": "cell-based, human", "procedure": "GPVI platelet aggregation was measured for Formula (II) and Formula (X) (ibrutinib). Blood was obtained from untreated humans, and platelets were purified from […] by centrifugation. Cells were resuspended to a final concentration of […] in buffer containing 145 mmol/L NaCl, 10 mmol/L HEPES, 0.5 mmol/L Na2HPO4, 5 mmol/L KCl, 2 mmol/L MgCl2, 1 mmol/L CaCl2, and 0.1% glucose, at pH 7.4. Stock solutions of Convulxin (CVX) GPVI were prepared on the day of experimentation and added to platelet suspensions 5 minutes (37° C., 1200 rpm) before the induction of aggregation. Aggregation was assessed with a Chronolog Lumi-Aggregometer (model 540 VS; Chronolog, Havertown, Pa.) and permitted to proceed for 6 minutes after the addition of agonist. The results are reported as maximum percent change in light transmittance from baseline with platelet buffer used as a reference.\nIn FIG. 23, the results of CVX-induced (250 ng/mL) human platelet aggregation results before and 15 minutes after administration of the BTK inhibitors to 6 healthy individuals are shown."}, "[9]": {"tested_on": "B cell receptor", "experiment": "Whole blood B cell receptor signalling, CD69 on CD19+ B cells", "type": "cell-based", "conditions": "2 h incubation, anti-human IgD 18 h", "procedure": "Blood from four healthy donors was incubated for 2 hours with the compounds shown over a concentration range, and then stimulated with anti-human IgD [10 μg/mL] for 18 hours. The mean fluorescent intensity (MFI) of CD69 (and CD86, data not shown) on gated CD19+ B cells was measured by flow cytometry. MFI values were normalized so that 100% represents CD69 level in stimulated cells without inhibitor, while 0% represents the unstimulated/no drug condition. […]"}, "[10]": {"tested_on": "pancreatic cancer in KPC mice", "experiment": "KPC pancreatic cancer model (spontaneous tumors)", "type": "in vivo", "conditions": "15 mg/kg BID oral", "procedure": "The KPC mouse model recapitulates many of the molecular, histopathologic, and clinical features of human disease (Westphalen and Olive, Cancer J. 2012, 18, 502-510). Combination therapy with gemcitabine was also evaluated in this model. Mice were enrolled after identification of spontaneously appearing tumors in the pancreas that were >100 mm^3 (as assessed by high-resolution ultrasonography)."}, "[11]": {"tested_on": "NK cells", "experiment": "Antibody-dependent NK cell degranulation (CD107a flow cytometry)", "type": "cell-based, human", "description": "Cell culture conditions were as follows. […] The HER18 cells were maintained in DEM supplemented with fetal bovine serum, penicillin-streptomycin and. Prior to assay, HER18 cells were harvested using trypsin-EDTA, washed with phosphate-buffered saline (PBS) containing 5% serum and viable cells were counted. […] Cell preparations were washed and then subject to positive selection of CD5+CD19^+ CLL cells using magnetic beads (MACS, Miltenyi Biotech). Cell preparations were used fresh after selection. […] Removal of non NK cells was performed using negative selection by MACS separation. Freshly isolated NK cells were washed three times, enumerated, and then used immediately for ADCC assays.\nLytic granule release was determined as follows. […] Degranulation was evaluated via by flow cytometery by externalization of CD107a, a protein normally present on the inner leaflet of lytic granules, and gating on NK cells (CD3-CD16^+ lymphocytes). The percentage of CD107a positive NK cells was quantified by comparison with a negative control (isotype control, unstained cells/FMO). Control cultures (NK cells cultured without target cells, or NK, target cell co-cultures in the absence of appropriate monoclonal antibody) were also evaluated; all experiments were performed in triplicate."}, "[12]": {"experiment": "In vitro metabolism in hepatocytes with 14C-labeled Formula (II)", "type": "in vitro ADME, mouse, rat, dog, rabbit, monkey, and human", "excerpt": "as §1"}},
  "note": "pEC50, pIC50: −log10 of the molar value.",
  "data": [
    {"smiles": "CC#CC(=O)N1CCC[C@H]1c1nc(-c2ccc(C(=O)Nc3ccccn3)cc2)c2c(N)nccn12", "note": "[Formula (II), (S)-4-(8-amino-3-(1-(but-2-ynoyl)pyrrolidin-2-yl)imidazo[1,5-a]pyrazin-1-yl)-N-(pyridin-2-yl)benzamide]", "values": [
      {"measurement": "reduction of obinutuzumab-stimulated NK cell degranulation", "setting": "[1]", "result": "minimal effect"},
      {"measurement": "irreversible BTK occupancy in granulocytic and monocytic MDSC", "setting": "[2]", "result": "Complete BTK occupancy"},
      {"measurement": "inhibition of in vitro EGFR phosphorylation", "setting": "[3]; 10 μM", "result": "no inhibition"},
      {"measurement": "inhibition at 10 µM", "setting": "[3]; Homo sapiens, A-431, read-out: EGF-induced p-EGFR inhibition", "result": 7, "unit": "%"},
      {"measurement": "number of tumors", "setting": "[4]; 15 mg/kg", "result": "fewer overall tumors"},
      {"measurement": "tumor volumes versus vehicle", "setting": "[4]; 15 mg/kg", "result": "significant decrease in tumor volumes"},
      {"measurement": "immunosuppressive tumor associated TAMs", "setting": "[4]; FIG. 62", "result": "significant reduction"},
      {"measurement": "immunosuppressive tumor associated MDSCs", "setting": "[4]; FIG. 63", "result": "significant reduction"},
      {"measurement": "immunosuppressive tumor associated Tregs", "setting": "[4]; FIG. 64", "result": "significant reduction"},
      {"measurement": "rituximab ADCC, NK cell activity", "setting": "[5]; FIG. 31", "result": "not inhibited"},
      {"measurement": "antibody-dependent lysis of rituximab-coated Raji cells", "setting": "[5]; healthy donor NK cells", "result": "not inhibited"},
      {"measurement": "immunosuppressive tumor associated myeloid cells and Tregs", "setting": "[6]; pancreatic tumor-bearing mice", "result": "reduce immunosuppressive tumor associated myeloid cells and Tregs"},
      {"measurement": "tumor volume", "setting": "[6]; vs vehicle", "result": "statistically significant reductions in tumor volume"},
      {"measurement": "glutathione binding and depletion", "setting": "[7]", "result": "binds to glutathione but does not deplete glutathione"},
      {"measurement": "GPVI platelet aggregation", "setting": "[8]; FIG. 22 and FIG. 23", "result": "does not"},
      {"measurement": "pIC50", "setting": "[8]; Homo sapiens, Platelet, FIG. 22", "result": 5.94},
      {"measurement": "pEC50", "setting": "[9]", "result": 8.09},
      {"measurement": "CD8+ cells in tumor tissues", "setting": "[10]", "result": "significant increase"},
      {"measurement": "immunosuppressive TAMs, MDSCs and Tregs in tumor tissues", "setting": "[10]", "result": "significantly reduced"},
      {"measurement": "pancreatic cancer growth and animal survival", "setting": "[10]", "result": "substantially slowed pancreatic cancer growth and increased animal survival"},
      {"measurement": "survival at day 14", "setting": "[10]", "result": "6/6"},
      {"measurement": "survival at day 28", "setting": "[10]", "result": "5/6"},
      {"measurement": "average tumor volume at day 28", "setting": "[10]; predose average 165 mm^3", "result": 272, "unit": "mm^3"},
      {"measurement": "inhibition of trastuzumab-stimulated NK cell degranulation", "setting": "[11]; 1 μM, HER18 target cells", "result": "no inhibitory effect"},
      {"measurement": "reduction of rituximab-stimulated NK cell degranulation", "setting": "[11]; DHL-4 target cells", "result": "< 2", "unit": "%"},
      {"measurement": "metabolites in hepatocytes", "setting": "[12]", "result": "two mono-oxidized metabolites and a glutathione conjugate"}
    ]}
  ]
}
